Data: patent US20080014162A1, “Method to treat skin in need of a calmative using at least one C-Glycoside derivative” (L'OREAL, priority 2006, published 2008)

Columns and labels:
[1] = test system: interleukin-8 secreted by normal human epidermal keratinocytes (NHEK) after stimulation with retinol; assay: Assay of IL8 + stimulation with retinol in normal human epidermal keratinocytes (anti-irritant effect); settings: for % blank (+retinol): IL8 as % of blank (+retinol); for IL8: 24 hours at 37° C.
Description: This test allows evaluation of the anti-irritant potential of various molecules, on a human keratinocyte (NHEK) cell line. In this test, an irritant situation is mimicked by exacerbating the production of IL-8 by the NHEKs by addition of retinol to the culture medium, Il-8 being involved in the initiation of keratinocyte irritation. Next, the anti-irritant effect of a C-glycoside compound is measured by means of its inhibitory action with respect to this exacerbated production.
Normal human epidermal keratinocytes are incubated in the presence of 10^−6 M retinol for 24 hours at 37° C. In response to the retinol, the production of the chemotactic agent interleukine 8 (IL-8) is measured via enzymatic assay using an assay kit (Elisa D8050) sold by the company R&D. The absorbance values are measured with a microplate reader (MRX/Dynatech) according to the procedures supplied with the assay kit.
A control test is also performed with dexamethasone, which is a reference calmative.
The results are expressed as a percentage of the control values after subtracting the background noise and as a percentage of inhibition of these values obtained in the presence of the compounds.

[2] = test system: interleukin-8 secreted by normal human epidermal keratinocytes (NHEK); assay: Assay of IL8 without stimulation in normal human epidermal keratinocytes; type: cell-based; settings: concentration 2%
Description: Dermatol., 102: 915-922 (1994)].

[3] = NHEK + 10^−6 M retinol, 24 hours, concentration 2%

SMILES	% blank (+retinol) [1, 3] [%]	IL8 ([1]; NHEK + 10^−6 M retinol, concentration 2%) [pg/mL]	% viability [1, 3] [%]	effect on the irritant reaction of retinol ([1]; conclusion in words from the IL8 assay in NHEK)	% blank ([2]; IL8 as % of blank) [%]	% viability [2] [%]	IL8 [2] [pg/mL]	% blank (+retinol) ([1]; NHEK + 10^−6 M retinol, 24 hours, concentration 10^−7M) [%]	IL8 ([1]; NHEK + 10^−6 M retinol, concentration 10^−7M) [pg/mL]
CC(O)C[C@@H]1OC[C@@H](O)[C@H](O)[C@H]1O (stereo partly drawn) [C-β-D-xylopyranoside-2-hydroxypropane]	60	124.4	104	reduces the irritant reaction of retinol	53	97	145.2	–	–
C[C@@H]1C[C@H]2[C@@H]3CCC4=CC(=O)C=C[C@]4(C)[C@@]3(F)[C@@H](O)C[C@]2(C)[C@@]1(O)C(=O)CO [Dexamethasone, reference compound]	–	–	–	–	–	–	–	57	117.7
